Assay results from patent US7109214B2, “Substituted cyclopentene compounds” (Grunenthal GmbH, priority 2004, dated 2006).
Counter-ions that a name gives are not always drawn. Like-named read-outs stand apart in the source and are kept apart here.

Legend:
CGRP1 receptors = biological target: T1, CGRP1 receptors (Cavia porcellus, UniProt H0UV86+Q8R4C6); assay: CGRP receptor affinity on isolated, spontaneously beating guinea pig atrium
T1 sequence (H0UV86 23-464): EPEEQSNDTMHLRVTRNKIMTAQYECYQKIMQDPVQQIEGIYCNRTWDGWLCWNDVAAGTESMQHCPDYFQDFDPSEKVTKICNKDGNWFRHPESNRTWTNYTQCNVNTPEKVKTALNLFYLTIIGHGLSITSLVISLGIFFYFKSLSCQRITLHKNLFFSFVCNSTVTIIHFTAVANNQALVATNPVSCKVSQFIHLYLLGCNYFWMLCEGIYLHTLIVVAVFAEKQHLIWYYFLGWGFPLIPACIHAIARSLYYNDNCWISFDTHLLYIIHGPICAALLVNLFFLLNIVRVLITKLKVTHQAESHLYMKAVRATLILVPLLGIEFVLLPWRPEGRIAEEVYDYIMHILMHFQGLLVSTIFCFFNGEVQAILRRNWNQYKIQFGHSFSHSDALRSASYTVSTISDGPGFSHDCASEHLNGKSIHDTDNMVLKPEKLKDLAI
T1 sequence (Q8R4C6 27-148): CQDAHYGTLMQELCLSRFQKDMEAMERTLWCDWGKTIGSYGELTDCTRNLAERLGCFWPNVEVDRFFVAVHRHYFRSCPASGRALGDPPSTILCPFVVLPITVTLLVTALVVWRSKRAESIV
Procedure: J. Physiol. Pharmacol. 75: 671–6,1997. The corresponding literature description is hereby introduced as a reference and is deemed to be part of the disclosure.
The exposure time for each concentration level is 2 minutes.
The validation and investigation of the substituted cyclopentene compounds according to the invention for their antagonistic action proceeded in accordance with the above-described method.

[1] = biological target: T2, endogenous CGRP receptors in SK-N-MC cells (Homo sapiens, UniProt O60894+Q16602); assay: Action on the formation of cAMP in the human neuroblastoma cell line SK-N-MC; assay type: cell-based; conditions: at 1 nM CGRP, compounds used in 10 μM concentrations
T2 construct: host or cells: SK-N-MC human neuroblastoma cells
T2 sequence (Q16602 23-461): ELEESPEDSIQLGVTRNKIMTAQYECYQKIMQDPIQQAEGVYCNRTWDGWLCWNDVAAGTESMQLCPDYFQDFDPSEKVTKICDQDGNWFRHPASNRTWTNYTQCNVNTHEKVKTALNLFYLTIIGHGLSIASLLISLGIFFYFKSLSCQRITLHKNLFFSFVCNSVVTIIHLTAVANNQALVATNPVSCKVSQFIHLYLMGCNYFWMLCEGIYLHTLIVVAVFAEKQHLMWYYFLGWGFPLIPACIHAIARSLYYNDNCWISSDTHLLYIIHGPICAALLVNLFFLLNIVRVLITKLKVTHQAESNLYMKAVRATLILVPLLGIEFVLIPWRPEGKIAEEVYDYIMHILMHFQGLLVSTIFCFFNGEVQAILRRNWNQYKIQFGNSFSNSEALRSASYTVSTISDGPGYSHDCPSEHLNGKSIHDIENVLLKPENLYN
T2 sequence (O60894 27-148 partner): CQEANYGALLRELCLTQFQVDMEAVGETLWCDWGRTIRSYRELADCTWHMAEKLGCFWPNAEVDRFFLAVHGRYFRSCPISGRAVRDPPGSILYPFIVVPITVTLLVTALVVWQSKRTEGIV
Description: The corresponding description is hereby introduced as a reference and is deemed to be part of the disclosure.

[2] = biological target: T3, recombinant human CGRP1 receptor (CRLR and RAMP1) (Homo sapiens, UniProt O60894+Q16602); assay: Inhibition of binding of 3-[125I]-iodohistidyl10-α-CGRP to the human CGRP1 receptor (SPA); conditions: read-out: Inhibition in % of binding of 3-[125I]-iodohistidyl10 CGRP; at a concentration of 10 μM of the particular compound
T3 construct: purchased Euroscreen, Belgium ES420-M9; host or cells: CHO-K1 cell membranes
T3 sequence (Q16602 23-461): as the sequence (Q16602 23-461) above
T3 sequence (O60894 27-148 partner): as the sequence (O60894 27-148 partner) above
Procedure: (A) Investigation of the Inhibition of Binding of [^125I]-α-CGRP to the Human CGRP1 Receptor
Various CGRP receptor subtypes are known which in each case consist of a complex of CRLR (Calcitonin Receptor-Like Receptor), RAMP (Receptor-Associated Membrane Protein) and RCP (Receptor Component Protein).
Investigation of the inhibition of the binding of 3-[^125I]-iodohistidyl^10-α-CGRP is carried out on a human CGRP1 receptor, which is composed of the recombinant human constituents (Calcitonin Receptor-Like Receptor) CRLR and (Receptor-Associated Membrane Protein) RAMP1 (item no. ES420-M9, Euroscreen, Belgium).
The radioligand used is 3-[^125I]-iodohistidyl^10 Calcitonin Gene-Related Peptide (Amersham pharmacia biotech, code IM 184, 2000 Ci/mmol).
The binding studies are performed as SPA (scintillation proximity assay) batches with WGA beads (wheat germ agglutinin, Amersham pharmacia biotech, code: RPNQ 0001). The incubation buffer used is 50 mm tris pH 7.4 with 120 mM NaCl, 5 mM KCl and 5 mM MgCl2. 0.25 μg of protein of membrane suspension of CHO-K1 cells, 250 μg of beads and 10 μg of albumin (BSA) and the above-stated radioligand in a concentration of […] together with the compound according to the invention to be investigated in a concentration of 10 μM are introduced into each well of a microtitre plate.
After an incubation period of 90 minutes, radioactivity is measured in a Trilux detector (Wallac, Finland).
The inhibition of binding of 3-[^125I]-iodohistidyl^10 Calcitonin Gene-Related Peptide to the recombinant human CGRP1 receptor was determined in accordance with the method described above.

[3] = biological target: T4, human calcitonin receptor-related receptor (CRLR) and human RAMP1 (Homo sapiens, UniProt O60894+Q16602); assay: GTPγS assay: CGRP-induced [35S]GTPγS incorporation into CHO-K1 membranes; assay type: biochemical
T4 construct: purchased Euroscreen, Brussels, Belgium; host or cells: CHO-K1 cells (transfected), membranes
T4 sequence (Q16602 23-461): as the sequence (Q16602 23-461) above
T4 sequence (O60894 27-148 partner): as the sequence (O60894 27-148 partner) above
Procedure: The antagonistic action of the substituted cyclopentene compounds according to the invention was determined using this assay.
To this end, membranes from CHO-K1 cells (Euroscreen, Brussels, Belgium), which are transfected with the human calcitonin receptor-related receptor (CRLR, Genbank: U17473) and human receptor-associated modifying protein type 1 (RAMP1, Genbank AJ001014), are first of all rapidly thawed, diluted in 20 mM HEPES, 10 mM NaCl, 10 mM MgCl2, 1 mM EDTA pH 7.4 and resuspended by homogenisation. […] After 30 minutes' incubation at room temperature, 50 μl of 2 nM [35S]GTPγS (Amersham) are added and incubated for a further 30 minutes at room temperature and the assay-plate is centrifuged for 10 minutes at 3200 revolutions per minute. Bound activity was determined with a Wallac 1450 Microbeta Scintillation Counter (Wallac, Torku, Finland).
The inhibition of CGRP-induced incorporation of [^35S]GTPγS into membranes was determined in accordance with the above-described method.

[4] = read-out: IC50 value for CGRP-antagonistic action, isolated guinea pig atria stimulated by h-α-CGRP

`CN(C)CC1CC(c2ccc(S(C)(=O)=O)cc2)=C(c2cc(Cl)cc(Cl)c2)C1=O.Cl` (stereo not drawn) showed a melting point of 160 to 163 °C.
In the case of `CN(C)CC1CC(c2ccc(S(C)(=O)=O)cc2)=C(c2ccc(O)cc2)C1=O.Cl` (stereo not drawn), the melting point is reported as 98 to 100 °C.
With `CN(C)CC1CC(c2ccc(S(C)(=O)=O)cc2)=C(c2ccc(S(C)(=O)=O)cc2)C1=O.Cl` (stereo not drawn) the melting point was 157 to 159 °C.
For `CN(C)CC1CC(c2ccc(S(C)(=O)=O)cc2)=C(c2cccc(F)c2)C1=O.Cl` (stereo not drawn) [Example 5, 5-Dimethylaminomethyl-2-(3-fluorophenyl)-3-(4-methanesulfonylphenyl)-cyclopent-2-enone, hydrochloride], the IC50 (CGRP1 receptors; [4]) was 25 µM, the melting point was 154 to 158 °C and the “Inhibition of cAMP formation” value [1] was 82%. The inhibition at 10 µM [2] was 58% and the inhibition at 12.5 µM [3] was 62.4%.
Molecule `Cc1cccc(C2=C(c3ccc(S(C)(=O)=O)cc3)CC(CN(C)C)C2=O)c1.Cl` (stereo not drawn) has a melting point of 148 to 150 °C.
Work on `CN(C)CC1CC(c2ccc(S(C)(=O)=O)cc2)=C(c2ccc3ccccc3c2)C1=O.Cl` (stereo not drawn) yielded a melting point of 163 to 165 °C.
`CN(C)CC1CC(c2ccc(S(C)(=O)=O)cc2)=C(c2ccc(C(C)(C)C)cc2)C1=O.Cl` (stereo not drawn) showed a melting point of 182 to 184 °C.
In the case of `CN(C)CC1CC(c2ccc(S(C)(=O)=O)cc2)=C(c2cc(F)cc(F)c2)C1=O.Cl` (stereo not drawn) [Example 1, 2-(3,5-Difluorophenyl)-5-dimethylaminomethyl-3-(4-methanesulfonylphenyl)-cyclopent-2-enone, hydrochloride], the IC50 (CGRP1 receptors; [4]) is reported as 13 µM, the “Inhibition of cAMP formation” value [1] is reported as 71% and the inhibition at 10 µM [2] is reported as 40%. For the same molecule, the inhibition at 12.5 µM [3] was 65.1%.
In the case of `CN(C)CC1CC(c2ccc(S(C)(=O)=O)cc2)=C(c2ccc(C(C)(C)C)cc2)C1O` (stereo not drawn) [Example 21, 2-(4-tert-Butylphenyl)-5-dimethylaminomethyl-3-(4-methanesulfonylphenyl)-cyclopent-2-enol, hydrochloride], the inhibition at 10 µM [2] is reported as 26%.
`CN(C)CC1CC(c2ccc(S(C)(=O)=O)cc2)=C(c2ccc3c(c2)OCO3)C1=O.Cl` (stereo not drawn) showed a melting point of 149 to 152 °C.
In the case of `COc1cccc(C2=C(c3ccc(S(C)(=O)=O)cc3)CC(CN(C)C)C2=O)c1.Cl` (stereo not drawn) [Example 13, 5-Dimethylaminomethyl-3-(4-methanesulfonylphenyl)-2-(3-methoxyphenyl)-cyclopent-2-enone, hydrochloride], the IC50 (CGRP1 receptors; [4]) is reported as 32 µM, the melting point is reported as 154 to 157 °C and the “Inhibition of cAMP formation” value [1] is reported as 88%. It also gave an inhibition at 10 µM [2] of 60% and an inhibition at 12.5 µM [3] of 63.9%.
In the case of `CN(C)CC1CC(c2ccc(S(C)(=O)=O)cc2)=C(c2cccc(O)c2)C1=O.Cl` (stereo not drawn) [Example 3, 5-Dimethylaminomethyl-2-(3-hydroxyphenyl)-3-(4-methanesulfonylphenyl)-cyclopent-2-enone, hydrochloride], the IC50 (CGRP1 receptors; [4]) is reported as 77 µM, the melting point is reported as 162 to 164 °C and the “Inhibition of cAMP formation” value [1] is reported as 86%. It also gave an inhibition at 10 µM [2] of 66% and an inhibition at 12.5 µM [3] of 65.1%.
`CN(C)CC1CC(c2ccc(S(C)(=O)=O)cc2)=C(c2cccc(C(F)(F)F)c2)C1=O.Cl` (stereo not drawn) gave a melting point of 152 to 154 °C.
With `CC(C)c1cccc(C2=C(c3ccc(S(C)(=O)=O)cc3)CC(CN(C)C)C2=O)c1.Cl` (stereo not drawn) the melting point was 131 to 133 °C.
Work on `Cc1ccc(C2=C(c3ccc(S(C)(=O)=O)cc3)CC(CN(C)C)C2=O)cc1.Cl` (stereo not drawn) yielded a melting point of 127 to 129 °C.
For “h-α-CGRP(8-37): human α-CGRP(8-37), CGRP1-antagonistic fragment used to validate the guinea pig atrium model [reference compound]”, the “Reduction in the increase in the frequency of beating of the atria stimulated by h-α-CGRP (in words)” value (CGRP1 receptors; concentrations of 30, 100 and 300 nM) was “concentration-dependent reduction” and the IC50 (CGRP1 receptors; validation experiment, isolated guinea pig atria, read-out: IC50 (semimaximal action), reduction of h-α-CGRP-stimulated increase in frequency of beating) was 0.019 µM.
`Cc1ccc(C2=C(c3ccc(S(C)(=O)=O)cc3)CC(CN(C)C)C2=O)cc1C.Cl` (stereo not drawn) showed a melting point of 139 to 142 °C.
`CCOc1cccc(C2=C(c3ccc(S(C)(=O)=O)cc3)CC(CN(C)C)C2=O)c1.Cl` (stereo not drawn) gave a melting point of 149 to 151 °C.
In the case of `CN(C)CC1CC(c2ccc(S(C)(=O)=O)cc2)=C(c2cccc(Cl)c2)C1=O.Cl` (stereo not drawn), the melting point is reported as 156 to 158 °C.
For `Cc1cc(C2=C(c3ccc(S(C)(=O)=O)cc3)CC(CN(C)C)C2=O)ccc1F.Cl` (stereo not drawn), the melting point was 95 to 98 °C (dec.).
